# Reference: US9012489B2, “Phenyl-3-aza-bicyclo[3.1.0]hex-3-yl-methanones and the use thereof as medicament” (Boehringer Ingelheim International GmbH, priority 2011, dated 2015)
# Molecular target: T1, GlyT1 transporter (Homo sapiens, UniProt P48067)
# T1 construct: endogenously expressing the GlyT1 transporter; host or cells: SK-N-MC human neuroblastoma cells
# T1 sequence (P48067 1-706): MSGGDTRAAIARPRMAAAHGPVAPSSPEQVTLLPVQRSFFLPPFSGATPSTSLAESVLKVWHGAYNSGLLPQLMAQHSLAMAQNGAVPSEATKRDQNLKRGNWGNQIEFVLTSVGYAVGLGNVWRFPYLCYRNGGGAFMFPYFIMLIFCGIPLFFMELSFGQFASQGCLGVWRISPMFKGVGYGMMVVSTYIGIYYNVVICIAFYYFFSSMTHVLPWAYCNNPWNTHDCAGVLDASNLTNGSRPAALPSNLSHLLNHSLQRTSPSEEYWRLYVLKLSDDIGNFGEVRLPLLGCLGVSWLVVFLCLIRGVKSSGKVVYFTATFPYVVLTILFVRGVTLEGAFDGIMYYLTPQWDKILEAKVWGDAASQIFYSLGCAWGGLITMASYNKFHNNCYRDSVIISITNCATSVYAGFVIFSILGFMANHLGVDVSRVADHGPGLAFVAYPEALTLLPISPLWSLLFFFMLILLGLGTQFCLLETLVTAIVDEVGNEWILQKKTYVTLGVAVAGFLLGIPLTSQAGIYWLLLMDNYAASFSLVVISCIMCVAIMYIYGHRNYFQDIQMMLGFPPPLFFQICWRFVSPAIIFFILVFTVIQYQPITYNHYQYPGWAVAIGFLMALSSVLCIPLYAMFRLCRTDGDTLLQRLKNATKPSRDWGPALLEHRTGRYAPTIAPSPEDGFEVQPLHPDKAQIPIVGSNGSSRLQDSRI
# Assay: GlyT1 assay: 3H-glycine uptake into SK-N-MC cells (Cytostar-T format)
# Assay type: cell-based
# Conditions: glycine uptake in human SK-N-MC cells endogenously expressing GlyT1; 500 nM glycine, 1% DMSO, signal recorded over 60 min
# Excerpt: Cells expressing either endogenously the GlyT1 transporter like JAR cells (human placental choriocarcinoma cells; e.g. WO 2008/002583) or SK-N-MC cells (human neuroblastoma cells; Depoortere et al., 2005. Neuropsychopharmacology 30:1963-1985) or primary neurons or cells which have been transfected with a plasmid encoding the cDNA of a functional GlyT1 transporter and stably or transiently express GlyT1 (e.g. WO 2006/08200) can be used to monitor glycine uptake in cells. Different protocols for determination of the glycine uptake into the cells described above can be applied in order to identify and rank compounds which interfere with glycine uptake in the selected cell.
# Compounds outlined in the examples below were characterized using human SK-N-MC cells (ATCC number HTB-10) endogenously expressing the GlyT1 transporter which is responsible for the uptake of glycine into these cells and the uptake of glycine into these cells is monitored using the Cytostar-T assay format (GE Healthcare, RPNQ0162) which is based on the radioactive glycine taken up by the cells and brought into proximity with the scintillant contained within the base of the plate. The radioactive decay is converted to a light signal based on the integration of the scintillation matrix into the assay plate. The uptake is recorded as kinetic and the slope of the measured counts over time is used to calculate IC50.
# In detail, SK-N-MC cells are seeded into 96-well Cytostar-T assay plates at a density of 200,000 cells/well and grown for 16-18 hours to confluence in growth medium as recommended by ATCC. Before starting the assay, cells are washed once with HBSS (Hank's buffered salt solution; Sigma, H8264) cont. 5 mM alanine (referred in here as HBSS/Ala) and afterwards the following reagents are added: • 1. 80 μl/well HBSS/Ala • 2. 20 μl/well of HBSS/Ala containing 6× the concentration of compound in 6% DMSO • 3. approx. 5-10 min incubation • 4. 20 μl/well 3 μM glycine (^3H-glycine (Perkin Elmer, NET004001MC, specific activity: 52 Ci/mmol; diluted 1:1 with unlabelled glycine) in HBSS/Ala.
# In the final assay, glycine concentration is 500 nM (250 nM derived from the ^3H-glycine Perkin Elmer, 250 nM unlabelled glycine), DMSO concentration is 1%.
# The assay plate is immediately after addition of the ^3H-glycine placed into a Micro-Beta Counter (Perkin Elmer) and the signal is recorded over 60 min.
# To calculate uptake, the slope in the linear range of the kinetics is determined using GraphPadPrism and for the different slopes at the selected concentrations IC50 are calculated by curve fitting using the software GraphPadPrism.
# Maximal glycine uptake in every experiment is determined by incubation of SK-N-MC cells with substrate but without inhibitor. Unspecific uptake of glycine by the cells is determined by incubating the cells with substrate and a reference GlyT1 inhibitor e.g. 10 μM RG-1678 (Pinard et al., 2010, J. Med. Chem. 53(12):4603-14).
# Compounds are diluted from 10 mM stocks and in general, for IC50 determination 8 compound concentrations are used.
row,IC50,Structure (SMILES)
1,251 nM,"Cc1nc(C23CC2CN(C(=O)c2cc(S(C)(=O)=O)ccc2O[C@H](C)C(F)(F)F)C3)no1 (single isomer, unassigned) [Example 43, [5-Methanesulfonyl-2-(2,2,2-trifluoro-1-methyl-ethoxy)-phenyl]-[1-(5-methyl-[1,2,4]oxadiazol-3-yl)-3-aza-bicyclo[3.1.0]hex-3-yl]-methanone]"
2,10 nM,"Cc1conc1C12CC1CN(C(=O)c1cc(S(C)(=O)=O)ccc1O[C@@H](C)C(F)(F)F)C2 (mixture of isomers) [Example 108, [5-Methanesulfonyl-2-(2,2,2-trifluoro-1-methyl-ethoxy)-phenyl]-[1-(4-methyl-isoxazol-3-yl)-3-aza-bicyclo[3.1.0]hex-3-yl]-methanone]"
3,1890 nM,"CC(C)Oc1ccc(S(C)(=O)=O)cc1C(=O)N1CC2CC2(c2noc(C(F)(F)F)n2)C1 (single isomer, unassigned) [Example 98, (2-Isopropoxy-5-methanesulfonyl-phenyl)-[1-(5-trifluoromethyl-[1,2,4]oxadiazol-3-yl)-3-aza-bicyclo[3.1.0]hex-3-yl]-methanone]"
4,3 nM,"C[C@@H](Oc1ccc(S(C)(=O)=O)cc1C(=O)N1CC2CC2(c2coc(C3CC3)n2)C1)C(F)(F)F (single isomer, unassigned) [Example 83]"
5,1130 nM,"CC(C)Oc1ccc(S(C)(=O)=O)cc1C(=O)N1CC2CC2(c2nc(C(F)(F)F)co2)C1 (racemic) [Example 110, (2-Isopropoxy-5-methanesulfonyl-phenyl)-[1-(4-trifluoromethyl-oxazol-2-yl)-3-aza-bicyclo[3.1.0]hex-3-yl]-methanone]"
6,181 nM,"Cc1cnc(C23CC2CN(C(=O)c2cc(S(C)(=O)=O)ccc2O[C@@H](C)C(F)(F)F)C3)o1 (single isomer, unassigned) [Example 23, [5-Methanesulfonyl-2-(2,2,2-trifluoro-1-methyl-ethoxy)-phenyl]-[1-(5-methyl-oxazol-2-yl)-3-aza-bicyclo[3.1.0]hex-3-yl]-methanone]"
7,5 nM,"Cc1cnc(C23CC2CN(C(=O)c2cc(S(C)(=O)=O)ccc2O[C@@H](C)C(F)(F)F)C3)o1 (single isomer, unassigned) [Example 22, [5-Methanesulfonyl-2-(2,2,2-trifluoro-1-methyl-ethoxy)-phenyl]-[1-(5-methyl-oxazol-2-yl)-3-aza-bicyclo[3.1.0]hex-3-yl]-methanone]"
8,9 nM,"C[C@H](Oc1ccc(S(C)(=O)=O)cc1C(=O)N1CC2CC2(c2noc(C3CC(F)(F)C3)n2)C1)C(F)(F)F (mixture of isomers) [Example 13, {1-[5-(3,3-Difluoro-cyclobutyl)-[1,2,4]oxadiazol-3-yl]-3-aza-bicyclo[3.1.0]hex-3-yl}-[5-methanesulfonyl-2-(2,2,2-trifluoro-1-methyl-ethoxy)-phenyl]-methanone]"
9,42 nM,"C[C@H](Oc1ccc(S(C)(=O)=O)cc1C(=O)N1CC2CC2(c2noc(C3CC3)n2)C1)C(F)(F)F (single isomer, unassigned) [Example 10, [1-(5-Cyclopropyl-[1,2,4]oxadiazol-3-yl)-3-aza-bicyclo[3.1.0]hex-3-yl]-[5-methanesulfonyl-2-(2,2,2-trifluoro-1-methyl-ethoxy)-phenyl]-methanone]"
10,6 nM,"C[C@@H](Oc1ccc(S(C)(=O)=O)cc1C(=O)N1CC2CC2(c2noc(C3CC3)n2)C1)C(F)(F)F (mixture of isomers) [Example 41, [1-(5-Cyclopropyl-[1,2,4]oxadiazol-3-yl)-3-aza-bicyclo[3.1.0]hex-3-yl]-[5-methanesulfonyl-2-(2,2,2-trifluoro-1-methyl-ethoxy)-phenyl]-methanone]"
11,97 nM,"C[C@H](Oc1ccc(C#N)cc1C(=O)N1CC2CC2(c2noc(C(F)(F)F)n2)C1)C(F)(F)F (single isomer, unassigned) [Example 89, 4-(2,2,2-Trifluoro-1-methyl-ethoxy)-3-[1-(5-trifluoromethyl-[1,2,4]oxadiazol-3-yl)-3-aza-bicyclo[3.1.0]hexane-3-carbonyl]-benzonitrile]"
12,19 nM,"C[C@H](Oc1ccc(S(C)(=O)=O)cc1C(=O)N1CC2CC2(c2ncc(C(F)(F)F)o2)C1)C(F)(F)F (mixture of isomers) [Example 131, [5-Methanesulfonyl-2-(2,2,2-trifluoro-1-methyl-ethoxy)-phenyl]-[1-(5-trifluoromethyl-oxazol-2-yl)-3-aza-bicyclo[3.1.0]hex-3-yl]-methanone]"
13,113 nM,"CCS(=O)(=O)c1ccc(O[C@H](C)C(F)(F)F)c(C(=O)N2CC3CC3(c3nccc(C(F)(F)F)n3)C2)c1 (single isomer, unassigned) [Example 77, [5-Ethanesulfonyl-2-(2,2,2-trifluoro-1-methyl-ethoxy)-phenyl]-[1-(4-trifluoromethyl-pyrimidin-2-yl)-3-aza-bicyclo[3.1.0]hex-3-yl]-methanone]"
14,1380 nM,"C[C@@H](Oc1ccc(S(C)(=O)=O)cc1C(=O)N1CC2CC2(c2noc(C(F)(F)F)n2)C1)C(F)(F)F (single isomer, unassigned) [Example 5, [5-Methanesulfonyl-2-(2,2,2-trifluoro-1-methyl-ethoxy)-phenyl]-[1-(5-trifluoromethyl-[1,2,4]oxadiazol-3-yl)-3-aza-bicyclo[3.1.0]hex-3-yl]-methanone]"
15,1440 nM,"C[C@H](Oc1ccc(S(C)(=O)=O)cc1C(=O)N1CC2CC2(c2csc(C(F)(F)F)n2)C1)C(F)(F)F (single isomer, unassigned) [Example 28, [5-Methanesulfonyl-2-(2,2,2-trifluoro-1-methyl-ethoxy)-phenyl]-[1-(2-trifluoromethyl-thiazol-4-yl)-3-aza-bicyclo[3.1.0]hex-3-yl]-methanone]"
16,2250 nM,"C[C@H](Oc1ccc(C#N)cc1C(=O)N1CC2CC2(c2noc(C(F)(F)F)n2)C1)C(F)(F)F (single isomer, unassigned) [Example 90, 4-(2,2,2-Trifluoro-1-methyl-ethoxy)-3-[1-(5-trifluoromethyl-[1,2,4]oxadiazol-3-yl)-3-aza-bicyclo[3.1.0]hexane-3-carbonyl]-benzonitrile]"
17,4 nM,"C[C@H](Oc1ccc(S(C)(=O)=O)cc1C(=O)N1CC2CC2(c2noc(C3(C(F)(F)F)CC3)n2)C1)C(F)(F)F (single isomer, unassigned) [Example 66, [5-Methanesulfonyl-2-(2,2,2-trifluoro-1-methyl-ethoxy)-phenyl]-{1-[5-(1-trifluoromethyl-cyclopropyl)-[1,2,4]oxadiazol-3-yl]-3-aza-bicyclo[3.1.0]hex-3-yl}-methanone]"
18,8 nM,"C[C@H](Oc1ccc(S(C)(=O)=O)cc1C(=O)N1CC2CC2(c2noc(C3(C)CC3)n2)C1)C(F)(F)F (mixture of isomers) [Example 134, [5-Methanesulfonyl-2-(2,2,2-trifluoro-1-methyl-ethoxy)-phenyl]-{1-[5-(1-methyl-cyclopropyl)-[1,2,4]oxadiazol-3-yl]-3-aza-bicyclo[3.1.0]hex-3-yl}-methanone]"
